Experimental findings from patent US7598255B2 (Janssen Pharmaceutica NV, priority 2005, dated 2009) are described below.

One test addresses rat 5-HT7a receptor (Rattus norvegicus, UniProt P32305). As to the kind of experiment: Affinity for 5-HT7 receptor binding sites, radioligand binding with [3H]5-CT. The conditions noted are these: membranes of HEK-293 cells with rat 5-HT7a, 1 nM [3H]5-CT. The method, boiled down: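 Competition binding on membranes from HEK-293 cells stably expressing rat 5-HT7a, 135 μg protein/mL in 50 mM Tris-HCl pH 7.5, 5 mM EDTA. Incubated 60 min at RT with 1 nM [3H]5-CT and increasing compound concentrations; nonspecific binding with 10 μM 5-HT. Filtration and scintillation counting, in triplicate.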

Test [1] addresses T1, 5-HT2B receptor (Homo sapiens, UniProt P41595). As to the kind of experiment: Affinity for 5HT2 receptor binding sites, h5-HT2B, [3H]mesulergine. The conditions noted are these: CHO h5-HT2B membranes.
For test [2], the target named is T2, human recombinant 5-HT2C receptor (Homo sapiens, UniProt P28335).
T2 sequence (P28335 33-458): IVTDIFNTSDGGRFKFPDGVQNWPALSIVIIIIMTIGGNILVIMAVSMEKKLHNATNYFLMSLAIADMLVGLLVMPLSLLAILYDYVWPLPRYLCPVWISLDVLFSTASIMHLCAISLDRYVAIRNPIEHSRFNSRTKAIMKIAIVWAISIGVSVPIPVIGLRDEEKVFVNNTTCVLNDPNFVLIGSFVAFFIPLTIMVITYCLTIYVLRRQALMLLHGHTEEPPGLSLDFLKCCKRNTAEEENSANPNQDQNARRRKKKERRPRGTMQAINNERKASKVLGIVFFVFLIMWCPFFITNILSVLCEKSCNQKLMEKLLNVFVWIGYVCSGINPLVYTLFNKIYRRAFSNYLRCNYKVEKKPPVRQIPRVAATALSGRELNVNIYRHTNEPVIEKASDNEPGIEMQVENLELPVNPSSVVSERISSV
As to the kind of experiment: Affinity for 5HT2 receptor binding sites, h5-HT2C, [3H]mesulergine. The conditions noted are these: CHO h5-HT2C membranes.

The target of test [3] is T3, 5-HT2A receptor (Homo sapiens, UniProt P28223). As to the kind of experiment: In vitro functional assay for 5-HT2 receptor (intracellular calcium, FLIPR), 5-HT2A. It counts as cell-based. The following applies: same cell lines as receptor binding, read-out: pKb 5-HT2A (converted). The text has this:
The 5-HT2 receptors are linked to the Gq family of G proteins and to subsequent activation of phospholipase C, induction of phosphoinositide metabolism and to an increase in intracelular calcium concentration. The same cell lines as described in the previous section (receptor binding) were used for the FLIPR experiments.
On the technique in general: Calcium flux is commonly read through the fluorescence of an indicator in the cells.

In test [4] the target is T1, 5-HT2B receptor. As to the kind of experiment: In vitro functional assay for 5-HT2 receptor (intracellular calcium, FLIPR), 5-HT2B. Format: cell-based. The following applies: same cell lines as receptor binding, read-out: pKb 5-HT2B (converted). On the procedure:
In vitro functional properties of these compounds on the different 5-HT2 receptor substypes were determined using fluorometric imaging plate reader (FLIPR) based calcium assay as previously described (Porter, R. H. et al. Br. J. Pharmacol. 1999, 128, 13-20; Jerman, J. C. et al. Eur. J. Pharmacol. 2001, 414, 23-30). The 5-HT2 receptors are linked to the Gq family of G proteins and to subsequent activation of phospholipase C, induction of phosphoinositide metabolism and to an increase in intracelular calcium concentration. The same cell lines as described in the previous section (receptor binding) were used for the FLIPR experiments.

Test [5] concerns the target T3, 5-HT2A receptor. As to the kind of experiment: Affinity for 5-HT2A receptor binding sites, radioligand binding with [3H]ketanserin. The conditions noted are these: read-out: Ki 5-HT2A, rat cortex membranes (assay 2) or NIH3T3 h5-HT2A membranes (assay 3), table does not say which.
Description: Sigmoidal inhibition curves were generated and fitted by nonlinear regression analysis (GraphPad Prism).
The affinity of the compounds for the rat 5-HT2A receptor was evaluated by competitive radioligand binding assay using [^3H]ketanserine as the radioligand. […] Brain tissue (rat cortex) was homogenized in 20 volumes per wet weight tissue of Tris-HCl buffer (50 mM, pH 7.4). The total membrane fraction was collected by centrifugation and washed by subsequent centrifugation runs (25 min at 25,000 g at 4° C.). Membranes were re-suspended in Tris-HCl buffer (50 mM, pH 7.4) containing 1 nM [^3H]ketanserin. Non-specific binding was estimated in the presence of 10 μM risperidone. The incubation was terminated by rapid filtration over Whatman GF/B filters pre-soaked in 0.1% polyethylenimine, and one washing step with 1 mL ice-cold Tris-HCl buffer, pH 7.4.
The target of test [6] is human recombinant 5-HT6 receptor (Homo sapiens, UniProt P50406). The test can be described thus: Affinity for 5-HT6 receptor binding sites, [3H]LSD. The following applies: HEK-293 h5-HT6 membranes.

Counter-ions that a name gives are not always drawn. A value given as a limit tells only on which side of the number the result lay.

Sequence of rat 5-HT7a receptor (P32305 whole entry): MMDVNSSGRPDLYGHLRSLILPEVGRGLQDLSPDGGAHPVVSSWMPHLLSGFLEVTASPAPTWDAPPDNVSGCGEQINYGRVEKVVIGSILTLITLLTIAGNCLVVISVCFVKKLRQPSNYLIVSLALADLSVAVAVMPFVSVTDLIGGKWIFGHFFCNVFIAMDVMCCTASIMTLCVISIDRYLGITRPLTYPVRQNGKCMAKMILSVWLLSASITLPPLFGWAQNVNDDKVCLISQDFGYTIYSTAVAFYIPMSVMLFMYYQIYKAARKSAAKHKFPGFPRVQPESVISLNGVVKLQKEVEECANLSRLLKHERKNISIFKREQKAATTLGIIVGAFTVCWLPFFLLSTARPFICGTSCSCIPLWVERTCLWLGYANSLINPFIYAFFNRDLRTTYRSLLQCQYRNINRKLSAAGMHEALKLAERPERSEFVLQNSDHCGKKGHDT
T1 sequence (P41595 whole entry): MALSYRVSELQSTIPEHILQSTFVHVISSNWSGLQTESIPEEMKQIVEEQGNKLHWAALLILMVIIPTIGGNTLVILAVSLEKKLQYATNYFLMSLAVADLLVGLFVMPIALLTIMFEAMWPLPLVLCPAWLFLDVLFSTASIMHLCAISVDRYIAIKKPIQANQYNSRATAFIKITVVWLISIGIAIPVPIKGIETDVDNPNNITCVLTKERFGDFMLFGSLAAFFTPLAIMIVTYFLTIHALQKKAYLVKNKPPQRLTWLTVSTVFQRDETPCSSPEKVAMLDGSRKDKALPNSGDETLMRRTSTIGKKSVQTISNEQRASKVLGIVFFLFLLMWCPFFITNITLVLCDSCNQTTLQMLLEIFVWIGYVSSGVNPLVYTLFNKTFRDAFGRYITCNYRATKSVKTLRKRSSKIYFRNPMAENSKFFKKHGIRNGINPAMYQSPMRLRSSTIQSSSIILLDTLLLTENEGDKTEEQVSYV
T3 sequence (P28223 whole entry): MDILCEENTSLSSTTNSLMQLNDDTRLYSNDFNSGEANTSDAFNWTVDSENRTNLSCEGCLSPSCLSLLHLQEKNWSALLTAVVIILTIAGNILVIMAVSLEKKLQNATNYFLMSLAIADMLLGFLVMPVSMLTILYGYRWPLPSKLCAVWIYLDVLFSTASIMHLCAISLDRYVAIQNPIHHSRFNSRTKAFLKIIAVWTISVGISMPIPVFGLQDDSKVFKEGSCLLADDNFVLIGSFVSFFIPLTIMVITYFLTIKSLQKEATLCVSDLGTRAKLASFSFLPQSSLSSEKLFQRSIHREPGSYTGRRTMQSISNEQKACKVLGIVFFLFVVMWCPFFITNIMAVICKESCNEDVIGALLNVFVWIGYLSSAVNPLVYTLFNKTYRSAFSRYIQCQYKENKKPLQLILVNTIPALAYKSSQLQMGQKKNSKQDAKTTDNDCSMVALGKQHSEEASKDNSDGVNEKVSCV
Sequence of human recombinant 5-HT6 receptor (P50406 whole entry): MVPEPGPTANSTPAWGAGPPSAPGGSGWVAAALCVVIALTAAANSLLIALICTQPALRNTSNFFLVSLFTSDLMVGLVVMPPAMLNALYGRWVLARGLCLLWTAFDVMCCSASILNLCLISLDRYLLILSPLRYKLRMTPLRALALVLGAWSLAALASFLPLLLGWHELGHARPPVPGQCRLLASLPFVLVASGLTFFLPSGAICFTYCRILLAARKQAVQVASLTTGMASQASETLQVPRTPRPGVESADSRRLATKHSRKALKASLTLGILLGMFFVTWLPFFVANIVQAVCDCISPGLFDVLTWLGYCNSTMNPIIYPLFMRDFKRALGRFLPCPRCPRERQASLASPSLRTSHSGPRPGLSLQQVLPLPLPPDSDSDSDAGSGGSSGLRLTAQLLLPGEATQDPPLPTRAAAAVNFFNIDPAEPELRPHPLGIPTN

As usually defined, the Ki is the dissociation constant of the complex between target and ligand, obtained from inhibition or displacement. As to `Fc1ccc(-c2nc(C3CCCC3)nc3c2CNCC3)cc1` [Example 17, 2-Cyclopentyl-4-(4-fluoro-phenyl)-5,6,7,8-tetrahydro-pyrido[4,3-d]pyrimidine], the Ki at rat 5-HT7a receptor is over 10000 nM; on 5-HT2B receptor [1], 250 nM; in test [2], 70 nM; at 5-HT2A receptor [5] it was 4 nM. Moreover, the Kb was 7.94 nM at 5-HT2A receptor [3] and 3980 nM on 5-HT2B receptor [4].

Regarding `Cc1ccc(-c2nc(C3CCCC3)nc3c2CNCC3)cc1` [Example 18, 2-Cyclopentyl-4-p-tolyl-5,6,7,8-tetrahydro-pyrido[4,3-d]pyrimidine], the Ki was 525 nM at rat 5-HT7a receptor; 80 nM at 5-HT2B receptor [1]; 60 nM in test [2]; 330 nM in test [6]; 10 nM on 5-HT2A receptor [5]. In addition, the Kb was 25.1 nM on 5-HT2A receptor [3] and 200 nM on 5-HT2B receptor [4].

As to `CC(C)c1nc2c(c(-c3ccc(F)cc3)n1)CCNCC2` [Example 50, 4-(4-Fluoro-phenyl)-2-isopropyl-6,7,8,9-tetrahydro-5H-pyrimido[4,5-d]azepine hydrochloride], the inhibitory constant (Ki) came out at 240 nM on rat 5-HT7a receptor; 20 nM at 5-HT2B receptor [1]; 80 nM in test [2]; 260 nM in test [6]; 3.7 nM at 5-HT2A receptor [5]. Besides, the Kb on 5-HT2B receptor [4] is 5.01 nM.

As to `Fc1ccc(Cc2nc3c(c(-c4ccc(F)cc4)n2)CCNCC3)cc1` [Example 57, 2-(4-Fluoro-benzyl)-4-(4-fluoro-phenyl)-6,7,8,9-tetrahydro-5H-pyrimido[4,5-d]azepine], the Ki was 550 nM at rat 5-HT7a receptor; 40 nM at 5-HT2B receptor [1]; 50 nM in test [2]; 80 nM in test [6]; 0.7 nM at 5-HT2A receptor [5]. In addition, the Kb on 5-HT2A receptor [3] was 6.31 nM; at 5-HT2B receptor [4] it was 126 nM.

For `CN1CCc2nc(Cc3ccc(F)cc3)nc(-c3ccc(F)cc3)c2CC1` [Example 62, 2-(4-Fluoro-benzyl)-4-(4-fluoro-phenyl)-7-methyl-6,7,8,9-tetrahydro-5H-pyrimido[4,5-d]azepine], the Ki on rat 5-HT7a receptor is 5270 nM; on 5-HT2B receptor [1], 21 nM; in test [2], 21 nM; in test [6] it was 27 nM; at 5-HT2A receptor [5], 0.75 nM. The Kb on 5-HT2A receptor [3] was 1.58 nM; at 5-HT2B receptor [4] it was 50.1 nM.

`C=C1CN(C)CCc2c1nc(Cc1ccc(F)cc1)nc2-c1ccc(F)cc1` [Example 63, 2-(4-Fluoro-benzyl)-4-(4-fluoro-phenyl)-7-methyl-9-methylene-6,7,8,9-tetrahydro-5H-pyrimido[4,5-d]azepine]: the Ki on rat 5-HT7a receptor is over 10000 nM; on 5-HT2B receptor [1], 52 nM; in test [2], 46 nM; in test [6], 60 nM; on 5-HT2A receptor [5], 1.5 nM. In addition, the Kb was 15.8 nM on 5-HT2A receptor [3] and 501 nM on 5-HT2B receptor [4].

Turning to `CN1CCc2c(nc(Cc3ccccc3)nc2-c2ccc(F)cc2)C1` [Example 82, 2-Benzyl-4-(4-fluoro-phenyl)-7-methyl-5,6,7,8-tetrahydro-pyrido[3,4-d]pyrimidine hydrochloride], the Ki is over 10000 nM at rat 5-HT7a receptor; 500 nM at 5-HT2B receptor [1]; 20 nM in test [2]; 230 nM in test [6]; 2 nM on 5-HT2A receptor [5]. Further, the Kb at 5-HT2A receptor [3] is 7.94 nM; on 5-HT2B receptor [4], 3980 nM.
